Test results taken from patent US9532569B2 (INSTITUT NATIONAL DE LA RECHERCHE AGRONOMIQUE, priority 2012, dated 2017).

How the values were obtained:
MRC5 cells = assay: In vitro cytotoxicity study on MRC5 cells (MTS); assay type: cell-based, human
Method: The cytotoxicity of the compound (IIa) according to the invention, and that of GR24 and of GR5 as comparative compounds, was evaluated in vitro, at concentrations of 10^−4 M and 10^−5 M, on MRC5 cells, in DMSO, in the following way.
MRC5 cells (human lung (fibroblasts) were cultured in Dulbecco's modified Eagle medium (DMEM) supplemented with: 25 mM of glucose, 10% (v/v) of fetal calf serum, 100 IU of penicillin, 100 μg/ml of streptomycin and 1.5 μg/ml of fungizone, and kept under 5% of CO2 at 37° C.
96-well plates were seeded with 2100 MRC5 cells per well in 200 μl of medium. After 24 hours, each of the compounds dissolved in DMSO was added for 72 hours, at a final concentration of 10^−4 M or 10^−5 M in a fixed volume of DMSO. The controls received an equal volume of DMSO.
The viable cell number was measured at 490 nm with the MTS reagent (Promega), and, for each compound, the concentration causing 50% inhibition of cell growth, IC50, was calculated.

Phelipanche ramosa pv C = assay: Germinative activity on parasitic plants; assay type: in vivo; conditions: counted after 4 days
Method: (§1) In this example, the germinative activity of the compounds in accordance with the invention (IIa) and (IIIb) and of the comparative compound GR24 was evaluated on the parasitic plants: Orobanche cumana, Orobanche minor, Striga hermonthica, Phelipanche ramosa (pv T and pv C).
(§2) The test protocol used was the following.
(§3) Two populations of Phelipanche ramosa were used in this study, pathovar (pv) C and T, described in the publication by Benharrat et al. (2005). Seeds of Phelipanche ramosa pathovar C were collected at Saint Martin de Fraigneau, France, on broomrapes parasitizing winter oilseed rape (Brassica napus L.) in 2005 and seeds of Phelipanche ramosa pathovar T were collected in Sarthe, France, on broomrapes developing on hemp (Cannabis sativa L.) in 2007.
(§4) The seeds are stored dry in the dark at 25° C.
(§5) The compounds to be studied were resuspended in acetone at 10 mmol·l^−1, then diluted with water to 1 mmol·l^−1 (water/acetone; v/v; 99/1). Dilutions of 1×10^−3 mol·l^−1 to 1×10^−15 mol·l^−1 were then prepared in a water/acetone mixture (v/v; 99/1). Seeds of parasitic plants were surface-sterilized according to the protocol described in the publication by Vieira Dos Santos et al. (2003), then resuspended in sterile water (10 g·l^−1) and distributed on a 96-well plate (in a proportion of 50 μl, i.e. approximately 100 seeds per well). After preconditioning (7 days, 21° C., in the dark, plate hermetically sealed, except for the seeds of S. hermonthica, which were preconditioned at 30° C.), the compounds to be studied were added and the volumes adjusted to 100 μl with water (water/acetone; v/v; 999/1).
(§6) In a plate, a range of concentrations from 10^−13 mol·l^−1 to 10^−6 mol·l^−1 was applied for GR24 and (IIa) and from 10^−12 to 10^−5 mol·l^−1 for (IIIb). Controls were carried out with a water/acetone mixture (v/v; 999/1) and without seeds. The plates were incubated so as to allow germination (21° C., in the dark or 30° C. for Striga hermonthica.). After 4 days, the seeds which had germinated were counted under a stereomicroscope (SZX10, Olympus). The seeds were considered to have germinated when the radicle was sticking out of the seed tegument. Each germination test was repeated at least 3 times. For each compound tested, dose-response curves (g=f(c), where g is the germination percentage and c the concentration (mol·l^−1)), and the EC50 (median effective concentration) were modeled on the basis of a 4-parameter logistic curve calculated with SigmaPlot® 10.0.
(§7) The percentages of maximum germination induced by the compounds tested for each parasitic plant were determined.

Phelipanche ramosa pv T = assay: Germinative activity on parasitic plants; assay type: in vivo; conditions: counted after 4 days
Method: as §1, §2, §3, §4, §5, §6, §7

Striga hermonthica = assay: Germinative activity on parasitic plants; assay type: in vivo; conditions: counted after 4 days, 30° C.
Method: as §1, §2
Seeds of Striga hermonthica (Del.) Benth were collected at Gadarif, Eastern Sudan, in 1999.
as §4, §5
as §6, with “The seeds were considered to have germinated when the radicle was sticking out of the seed tegument. Each germination test was repeated at least 3 times.” left out
as §7

Orobanche cumana = assay: Germinative activity on parasitic plants; assay type: in vivo; conditions: counted after 4 days
Method: as §1, §2
(§8) Seeds of Orobanche cumana Wallr. were collected from broomrapes parasitizing sunflower (Helianthus annuus L.), at Longeville-sur-mer, France, in 2009; seeds of clover broomrape (Orobanche minor Sm.) from a parasite of red clover (Trifolium pratense L.) were obtained from Professor K. Yoneyama (Utsunomiya University, Japan).
as §4, §5, §6, §7

Orobanche minor = assay: Germinative activity on parasitic plants; assay type: in vivo; conditions: counted after 4 days
Method: as §1, §2, §8, §4, §5, §6, §7

CC1=C(C)C(Sc2ccc(Cl)cc2)OC1=O (centres unmarked) [Compound (IIa), 5-((4-chlorophenyl)thio)-3,4-dimethylfuran-2(5H)-one]
inhibition at 100 µM (MRC5 cells; Homo sapiens, MRC5, 10^−4M, 72 hours, ± standard error, read-out: Percentage inhibition of MRC5 cell growth): 11 ± 5%
inhibition at 10 µM (MRC5 cells; Homo sapiens, MRC5, 10^−5M, 72 hours, ± standard error, read-out: Percentage inhibition of MRC5 cell growth): 7 ± 4%
cytotoxicity compared with GR5 and GR24 (MRC5 cells; concentration of 10^−4 M): cytotoxicity which is much lower than that of the comparative compounds GR5 and GR24
Percentage of maximum germination induced (Phelipanche ramosa pv C): 27 ± 4%
Percentage of maximum germination induced (Phelipanche ramosa pv T): 72 ± 2%
Percentage of maximum germination induced (Striga hermonthica): no (no significant germination compared to the negative control (<2%))
Percentage of maximum germination induced (Orobanche cumana): no (no significant germination compared to the negative control (<2%))
Percentage of maximum germination induced (Orobanche minor): no (no significant germination compared to the negative control (<2%))
